One data set has as its system A2058 and 5R cells. As to the kind of experiment: Reversibility of inhibition of tumor cell adhesion. In kind it is cell-based. Conditions: for activity at 1 µg/mL / activity at 5 µg/mL: Homo sapiens, read-out: Adhesion (% of control). As to the method: An adhesion assay was developed using tissue culture plastic petri dishes as the substrate. Aliquots of cells treated similarly to those in the cell motility assay were plated in triplicate onto the dishes and incubated for 90 rain at 37° C. Cells which were either poorly adherent or nonadherent were gently washed off with PBS. The remaining cells were stained with Diff Quik™ (from Baxter Scientific Products, McGaw Park. Ill., USA). Adherence was quantitated using laser densitometry and values were calculated as a percentage of the control adherence.
As with cell motility, the effect of compound 1 on cell adhesion is reversible. A2058 and 5R cells were treated as above for testing the reversibility of cell motility. The resulting "treated" cells (±), "washout" cells (±), and "control" cells were then subjected to the adhesion assay.

Data set [1] in a line: Cell viability by trypan blue exclusion. The class given is cell-based. To be noted: a2058 and 5r cells; average. As to the method: Compound 1 was preincubated with the cells for various periods of time, added at the start of the assay, or added later. Additionally, compound 1 remained present during the motility assay. The cells were assayed for their motile response to AMF. AMF stimulates random and directed locomotion of 5R ras-transfected rat embryo fibroblasts and A2058 human melanoma cells. […] Cell viability determined by trypan blue exclusion averaged greater than 96%. Cells exposed to various concentrations of compound 1 were tested for their response to AMF vs. control. Percent stimulated motility (in densitometer units) is defined as: […]

Data set [2] concerns OVCAR3 human ovarian cancer. Description: Survival after intraperitoneal treatment. The class given is in vivo, nude mice. To be noted: 50 mg/kg/d ip. From the text:
This example illustrates the effect of compound 1 on the survival of nude mice. The mice had been intraperitoneally injected with OVCAR3 human ovarian cancer cells followed, after three weeks, by intraperitoneal injection of 1.
The OVCAR3 human ovarian cancer animal model accurately approximates the clinical presentation of stage III-IV ovarian cancer of peritoneal carcinomatosis. Untreated, OVCAR3 tumor is lethal to nude mice.
Six-week-old nude mice were inoculated intraperitoneally with 3.4×10^7 OVCAR3 human ovarian cancer cells. After a three week period, all animals had grossly distended abdomens due to OVCAR3 ascites. Two groups of animals (four each) were paired for relative severity of ascites and treatment was initiated. Compound 1, 50 mg/kg/d in 60% DMSO (200 μL aliquot) or a vehicle alone, was administered via daily intraperitoneal injection. Overall survival from start of treatment was the study endpoint. Relative survival improvement was calculated as mean treatment group survival divided by mean control group survival.

Data set [3] concerns A2058 human melanoma tumors. As to the kind of experiment: Oral treatment of subcutaneous xenografts. In kind it is in vivo, nude mice. As to the method: This example illustrates the antitumor effect of compound 1 when administered orally to mice, following either subcutaneous inoculation of the mice with A2058 cells at two flank sites, intraperitoneal injection of OVCAR3 cells, or tail vein inoculation with 5R cells.
The antitumor effect of compound 1 was tested on groups of 10 nude mice which had been inoculated subcutaneously at two flank sites with 10^6 A2058 cells. Measureable tumors were observed within 14 days. On day 3 following tumor introduction, compound 1, diluted in PEG-400, or PEG-400 vehicle alone, was administered by gavage. Animals were monitored daily for toxicity, behavior, and extent of tumor. Weights and bidirectional measurements of A2058 tumor masses were determined three times per week.

For another data set, the system named is OVCAR3 cells. As to the kind of experiment: Laminin-stimulated cell motility. In kind it is cell-based, human. Conditions: 1 μg/mL, 18 hr preincubation; laminin 100 μg/mL.
A further data set concerns 5R cells. As to the kind of experiment: Clonogenic (crystal violet) proliferation assay. To be noted: 0-10 μg/mL, 96 hr. The class given is cell-based, rat. As to the method:
Proliferation: Two independent methods were used to determine the effect of various compounds on cellular proliferation. The first method utilized [^3 H]thymidine labelling and was performed using A2058, 5R, OVCAR3, and MDA-231 cells. Because the potential effect of compound 1 on thymidine metabolism was unknown, a clonogenic assay was also used. This assay utilized crystal violet nuclear staining.
For the clonogenic assay, aliquots of 50,000 cells per well (24 well plates) were grown under standard tissue culture conditions in the presence of increasing doses or test compound (0-10 μg/mL) or vehicle control. After 96 hr, the cells were gently washed with PBS, fixed, and stained with 0.5% crystal violet nuclear stain in 20% methanol. Excess stain was removed with tap water and bound stain was eluted with an equal volume solution of 01N sodium citrate (pH 4.2) and absolute ethanol. Optical density (O.D.) of eluted crystal violet stain was determined at 540 nm. The results of dose-dependent inhibition of tumor cell proliferation by compound 1 are shown in FIG. 5, in which the data are expressed as percent of untreated control cell proliferation for each cell type. The degree of inhibition varied with the cell type and was maximal (76%) for the A2058 cell line.

For data set [4], the system named is cell adhesion to fibronectin. Description: Cell adhesion to fibronectin. In kind it is cell-based. To be noted: data not shown. As to the method:
Cells were preincubated with compound 1 (0.03-10 μg/mL) for periods of 2 to 48 hr prior to the adhesion assay. In addition, compound 1 remained present during the assay. […] Maximal inhibition of adhesion was observed following overnight exposure of the cells to compound 1.

For data set [5], the system named is 5R ras-transfected rat embryo fibroblast cell line. As to the kind of experiment: Experimental pulmonary metastasis, tumor cells pretreated in vitro. The class given is in vivo, nude mice. To be noted: cells treated overnight, 1-10 μM; 10 d. As to the method: This example illustrates the effect of selected compounds on the development of experimental pulmonary metastases, when the tumor cells are first incubated with the compound in vitro and subsequently injected into the tail vein of nude mice. In this example, both the 5R ras-transfected rat embryo fibroblast cell line and the HT-29 human colon cancer cell line were evaluated.
The 5R ras-transfected rat embryo fibroblast cell line forms confluent pulmonary metastases within 2-3 weeks after inoculation. For the experimental metastasis assay, 5R cells were treated in culture overnight with the test compounds (1-10 μM). After culture, the cells were harvested, washed and injected into the tail vein of six-week old nude mice. After 10 d, the mice were humanely sacrificed and the lungs were removed and fixed in Bouin's solution. The visible pulmonary metastases were counted.

Here are results for one compound from patent US5482954A, “Signal transduction inhibitor triazole and diazole compounds” (priority 1994, dated 1996).

Structures are written as SMILES. Where two headings read alike, the source gives them in different places.

Usually viability stands for the share of living cells, or the viability signal relative to a control. Read a high viability as better survival. Regarding `NC(=O)c1nnn(Cc2cc(Cl)c(C(=O)c3ccc(Cl)cc3)c(Cl)c2)c1N` [Compound 1], the “reversibility of adhesion inhibition” value in the data set with A2058 and 5R cells is on record as “reversible”. Moreover, the activity at 1 µg/mL with A2058 and 5R cells (A2058, 1 μg/mL (+/-)) was 106%; in the data set on A2058 and 5R cells (A2058, 1 μg/mL (-/+)), 33%. Also, the activity at 5 µg/mL in the data set with A2058 and 5R cells (A2058, 5 μg/mL (+/-)) stood at 96%; in the data set with A2058 and 5R cells (A2058, 5 μg/mL (-/+)), 37%. The viability in data set [1] was > 96%. Further, in data set [2], the “increase of overall survival” value is given as 220%. For the same compound, in data set [2] (control 7.25±4.4 days), the “overall survival from start of treatment” value turned out to be 16.0 ± 2.5 days. Besides, the gross toxicity entry in data set [3] (35 days of administration, and at necropsy) is recorded as “No gross toxicity”. Besides, in data set [3] (histologic evaluation of necropsy specimens), the tumor necrosis entry was “Marked necrosis”. Also, the tumor growth result in data set [3] (oral gavage from day 3) was “Significant growth arrest”. The tumor incidence entry in data set [3] (oral gavage from day 3) is given as “marked delay in tumor incidence”. In addition, in the data set with OVCAR3 cells, the “inhibition of spontaneous and laminin-stimulated motility” value is recorded as “inhibited both spontaneous motility”. Besides, the “inhibition of tumor cell proliferation” value in the data set with 5R cells was “dose dependent inhibition of tumor cell proliferation”. Besides, the “cell adhesion to fibronectin” value in data set [4] was “decreased cell adhesion”. In data set [5], the “inhibition of pulmonary colonization” value was 95%.
